Structures can show the parent of a compound that is named as a salt.
| melting point | SMILES |
| --- | --- |
| 230 to 232 °C | C=CC[C@H](C(N)=O)[C@@H](CC(C)C)C(=O)NC1N=C(N(C)C)c2ccccc2N(C)C1=O (stereo partly drawn) [Example 20, (2R,3S) N1-[1,3-dihydro-1-methyl-2-oxo-5-(dimethylamino)-2H-1,4-benzodiazepin-3-yl]-2-(2-methylpropyl)-3-allyl-butanediamide] |
| 266.6 to 267.8 °C | C=CC[C@H](C(N)=O)[C@@H](CC(C)C)C(=O)NC1N=C(N(C)c2ccccc2)c2ccccc2N(C)C1=O (stereo partly drawn) [Example 21, (2R,3S) N1-[1,3-dihydro-1-methyl-2-oxo-5-(N-methyl-N-phenylamino)-2H-1,4-benzodiazepin-3-yl]-2-(2-methylpropyl)-3-allyl-butanediamide] |
| 231 to 238 °C | C=CC[C@H](C(N)=O)[C@@H](CC(C)C)C(=O)NC1N=C(N2CCCCC2)c2ccccc2N(C)C1=O (stereo partly drawn) [Example 22, (2R,3S) N1-[1,3-dihydro-1-methyl-2-oxo-5-(N-piperidinyl)-2H-1,4-benzodiazepin-3-yl]-2-(2-methylpropyl)-3-allyl-butanediamide] |
| 232 to 237 °C | C=CC[C@H](C(N)=O)[C@@H](CC(C)C)C(=O)NC1N=C(N2CCCCCC2)c2ccccc2N(C)C1=O (stereo partly drawn) [Example 23, (2R,3S) N1-[1,3-dihydro-1-methyl-2-oxo-5-(N-homopiperidinyl)-2H-1,4-benzodiazepin-3-yl]-2-(2-methylpropyl)-3-allyl-butanediamide] |
| 137 to 145 °C | C=CC[C@H](C(N)=O)[C@@H](CC(C)C)C(=O)NC1C(=O)N(C)c2ccccc2-c2ccccc21 (stereo partly drawn) [Example 47, (2R,3S) N1-[6,7-dihydro-5-methyl-6-oxo-5H-dibenz[b,d]azepin-7-yl]-2-(2-methylpropyl)-3-allyl-butanediamide] |

Second part, the compound before the results:

| SMILES | melting point |
| --- | --- |
| C=CC[C@H](C(N)=O)[C@@H](CC(C)C)C(=O)NC1N=C(c2cccc(OC)c2)c2ccccc2N(C)C1=O (stereo partly shown) | 225 to 230 °C |
| C=CC[C@H](C(N)=O)[C@@H](CC(C)C)C(=O)NC1N=C(c2ccccc2)c2cc(OC)ccc2N(C)C1=O (stereo partly shown) | 244 to 255 °C |
| C=CC[C@H](C(N)=O)[C@@H](CC(C)C)C(=O)NC1N=C(c2cccnc2)c2ccccc2N(C)C1=O (stereo partly shown) | 251 to 253 °C |
| CC(C)C[C@@H](C(=O)N[C@H]1N=C(c2ccccc2)c2ccccc2N(C)C1=O)[C@@H](CC1CC1)C(N)=O (as salt: succinate) | 146 to 148 °C |
| C=CC[C@H](C(N)=O)[C@@H](CC(C)C)C(=O)NC1N=C(N2CCOCC2)c2ccccc2N(C)C1=O (stereo partly drawn) [Example 19, (2R,3S) N1-[1,3-dihydro-1-methyl-2-oxo-5-(N-morpholino)-2H-1,4-benzodiazepin-3-yl]-2-(2-methylpropyl)-3-allyl-butanediamide] | 145 to 151 °C |
